Source: patent US6852710B2, “2-alkoxyestradiol analogs with antiproliferative and antimitotic activity” (Southwest Foundation for Biomedical Research, priority 2001, dated 2005)

Experiments:
[1] = tested on: NCI/ADR cells; assay: SRB assay, inhibition of proliferation, multidrug resistant line; type: cell-based, human; conditions: for IC50: Homo sapiens, NCI/ADR-RES, NCI/ADR multidrug resistant, 48 hours, n=3 mean±SD; for NCI-ADR/MDA-MB-435 resistance factor: IC50 in NCI/ADR divided by IC50 in MDA-MB-435
Source text: The SK-OV-3 cell line was derived from ovarian carcinoma, the MDA-MB-435 and NCI/ADR from breast adenocarcinoma, PC3 and DU 145 from prostate carcinoma and HeLa from cervical carcinoma. The SK-OV-3, HeLa, PC3, and DU 145 and cell lines were obtained from the American Type Culture Collection, 10801 University Blvd., Manassas, Va. 20110-2209. The MDA-MB-435 cell line was obtained from the Lombardi Cancer Center of Georgetown University School of Medicine and the NCI/ADR cell line was obtained from the National Cancer Institute, Fairview Center, Suite 204, 1003 West 7th Street, Frederick, Md. 21701-8531.
(§1) Cells were plated into 96 well plates and allowed to grow and attach for 18-24 hours and then the drugs or vehicle controls were added to the wells. Each data point represents the mean of three experiments, each of which consisted of three replicates within an experiment. The cells were incubated with the drugs for 48 hours and then the cellular protein was fixed and quantified using the sulforhodamine B (SRB) assay. The absorbance of the dye is linear with respect to both cell protein and cell number (Skehan, P.; Storeng, R.; Scudiero, D., Monks; A., McMahon, J.; Vistica, D., Warren, J. T.; Bokesch, H., Kenney, S.; and Boyd, M. R., “New colorimetric cytotoxicity assay for anticancer-drug screening”, J. Natl. Cancer Inst, 82, 1107-1112 (1990)). The effects of the drugs were compared to vehicle controls and the data plotted as percent of control vs. log of drug concentration.
(§2) The IC50 is defined as the drug concentration required to inhibit cell proliferation 50% and is calculated from the linear portion of the log concentration response curve.
(§3) The IC50 values for inhibition of proliferation were calculated from the log dose response curve (n=3, mean±SD).
The effects of the analogs on a multi-drug resistant cell line were also studied. The NCI/ADR cell line is resistant to many chemotherapeutic agents by virtue of its high expression of the drug efflux pump P-glycoprotein. The NCI/ADR cell line was obtained from the National Cancer Institute, Fairview Center, Suite 204, 1003 West 7th Street, Frederick, Md. 21701-8531.
The IC50 values for inhibition of proliferation were calculated from the dose-response curves. The values represent the mean of 3 experiments ±SD. Resistance factors were calculated by dividing the IC50 of the resistant cell line, NCI/ADR, by the IC50 in a drug sensitive cell line, MDA-MB-435.

[2] = tested on: MDA-MB-435 cells; assay: SRB assay, inhibition of proliferation; type: cell-based, human; conditions: for IC50: Homo sapiens, MDA-MB-435, 48 hours, n=3 mean±SD
Method: (§4) The 4 analogs of 2-ME2 set forth in Table 1 were tested for antiproliferative activity against 6 human tumor cell lines. The SK-OV-3 cell line was derived from ovarian carcinoma, the MDA-MB-435 and NCI/ADR from breast adenocarcinoma, PC3 and DU 145 from prostate carcinoma and HeLa from cervical carcinoma. The SK-OV-3, HeLa, PC3, and DU 145 and cell lines were obtained from the American Type Culture Collection, 10801 University Blvd., Manassas, Va. 20110-2209. The MDA-MB-435 cell line was obtained from the Lombardi Cancer Center of Georgetown University School of Medicine and the NCI/ADR cell line was obtained from the National Cancer Institute, Fairview Center, Suite 204, 1003 West 7th Street, Frederick, Md. 21701-8531.
as §1, §2, §3

[3] = tested on: HeLa cells; assay: SRB assay, inhibition of proliferation; type: cell-based; conditions: Homo sapiens, 48 hours, n=3 mean±SD
Method: as §4, §1, §2, §3

[4] = tested on: PC3 cells; assay: SRB assay, inhibition of proliferation; type: cell-based; conditions: Homo sapiens, PC-3; PC3, 48 hours, n=3 mean±SD
Method: as §4, §1, §2, §3

[5] = tested on: SK-OV-3 cells; assay: SRB assay, inhibition of proliferation; type: cell-based; conditions: Homo sapiens; SK-OV-3, 48 hours, n=3 mean±SD
Method: as §4, §1, §2, §3

[6] = tested on: DU 145 cells; assay: SRB assay, inhibition of proliferation; type: cell-based, human; conditions: for potency relative to 2-ME2: DU 145 cell line; for IC50: Homo sapiens, DU 145, 48 hours, n=3 mean±SD
Method: as §4, §1, §2, §3

[7] = tested on: Human Umbilical Vein Endothelial Cells (HUVEC); assay: HUVEC proliferation (SRB assay); type: cell-based; conditions: for potency relative to 2-ME2, HUVEC proliferation: in words; for IC50: Homo sapiens, HUVEC, SRB assay
Source text: FIG. 2 illustrates the effects of compounds on Human Umbilical Vein Endothelial Cells (HUVEC) proliferation. The SRB assay was used to construct the dose response curves of the agents in HUVEC cells. n=3±SD;
Two in vitro assays were used to detect the potential for antiangiogenic activity of the analogs. One assay tested the ability of the analogs to inhibit the cellular proliferation of endothelial cells as shown below (Table 4). The ability of the analogs to inhibit the proliferation of endothelial cells was tested and compared to the effects of 2-ME2. Drugs that have antiangiogenic activity inhibit the proliferation of endothelial cells.

[8] = tested on: Human Umbilical Vein Endothelial Cells (HUVEC); assay: HUVEC invasion, Matrigel invasion chambers; type: cell-based; conditions: for IC50: Homo sapiens, HUVEC, Matrigel, 24 hours
Source text: FIG. 3 illustrates the effects of compounds on Human Umbilical Vein Endothelial Cells (HUVEC) cell invasion. Becton-Dickinson (BD) Biocoat® Matrigel® invasion chambers were used to construct dose response curves of the compounds for invasion of HUVECs. n=3±SD;
A second assay was also used to evaluate the analogs for potential antiangiogenic activity. The complex process of endothelial cell invasion and migration are key events during angiogenesis. The ability of compounds to inhibit the invasion and migration of endothelial cells through a biological membrane matrix was evaluated. Specifically, the ability of the 2-ME2 analogs, 15-dehydro-2-ME2, 14-dehydro-2-ME2 and 2-ME2-15α,16α to inhibit the invasion and migration of human umbilical vein endothelial cells (HUVEC) through Matrigel® basement membrane material and a PET membrane with 8 μm pores was evaluated. HUVECs were obtained from BioWhittaker and were used during passages of 2 to 6. BD Biocoat® Matrigel® invasion chambers were used for the assays. These modified Boyden chambers have a PET membrane with 8 μm pores that have been coated with Matrigel®. The membrane separates the upper chamber from the lower chamber. HUVECs were plated into the top chamber in media containing 0.1% bovine serum albumin with either a test compound or vehicle and allowed to invade and migrate through pores for 24 hours. The media in the lower chamber contained the chemoattractant, 10% fetal bovine, serum. Following the incubation period the cells on the top of the membrane were removed with a cotton swab and the cells that had migrated through the pores to the lower surface of the membrane were stained with hematoxylin and eosin and counted microscopically. Experiments were conducted in duplicate and the numbers of cells that migrated were counted in 10 microscope fields per transwell chamber. The data are expressed as percent of vehicle control invasion. Dose response curves were generated and are shown in FIG. 3 and the IC50s for inhibition of HUVEC invasion were determined and are presented above in Table 4. All of the 2-ME2 analogs inhibited HUVEC invasion.

[9] = tested on: MDA-MB-435 breast cancer xenograft; assay: MDA-MB-435 breast cancer xenograft model; type: in vivo, mice; conditions: for tumor growth delay: intraperitoneally daily for 30 days, time for median to reach tumor burden of 1500 mg vs control; for antitumor effect compared with 2-ME2: tumor burden versus time
Method: FIG. 4 illustrates the effects of compounds in an MDA-MB-435 breast cancer xenograft model. The data are the means of the groups ±SEM. Statistical significance (P<0.05) is indicated by an asterisk;
The analogs were tested for antitumor activity using an MDA-MB-435 breast cancer xenograft model. Tumor fragments of MDA-MB-435 (30 mg) were implanted subcutaneously into female athymic NCr-nu mice (SWF-1) weighing approximately 24 g. The tumor fragments were harvested from nude mice hosts. Animal weight and tumor dimensions were measured twice weekly with calipers and tumor weights estimated using 2-dimensional measurements of length and width and the formula [1×(w)^2]/2. When the tumors reached an approximate size equivalent to 175 mg (13 days after implantation) the mice were randomized to treatment or control groups and treatments were begun. The compounds were administered intraperitoneally daily for 30 days on the basis of individual animal body weights. Treatment groups contained 10 mice and the vehicle treated control group consisted of 20 mice. The mean tumor burdens were plotted for each treatment group and compared to controls. The means of the tumor burden data were analyzed for differences using a one-sided Student's t-test, with a P<0.05 considered to be significant difference. Tumor growth delay, the difference between the time for the median of each group (treatment and control) to reach a tumor burden of 1500 mg was calculated.

[10] = tested on: 6 human tumor cell lines; assay: SRB antiproliferative assay, panel of tumor cell lines; type: cell-based; conditions: for potency compared with 2-ME2, tumor cell lines: in words, 15-dehydro-2-ME2: MDA-MB-435, NCI/ADR, PC3, HeLa and SK-OV-3
Method: as §4, §1, §2

## CC[C@]1(O)C[C@@H]2CN(CCc3c([nH]c4ccccc34)[C@@](C(=O)OC)(c3cc4c(cc3OC)N(C)[C@H]3[C@@](O)(C(=O)OC)[C@H](OC(C)=O)[C@]5(CC)C=CCN6CC[C@]43[C@@H]65)C2)C1 [Vinblastine, reference compound]
[1]
  IC50: 430 ± 70 nM
  NCI-ADR/MDA-MB-435 resistance factor: 139.61
[1]; listed as vinblastine
  NCI-ADR/MDA-MB-435 resistance factor: 140
[2]
  IC50: 3.08 ± 0.09 nM

## COc1cc2c(cc1O)CC[C@@H]1[C@@H]2CC[C@]2(C)[C@@H](O)C=C[C@@H]12 [15-dehydro-2-ME2, 2-Methoxyestra-1,3,5(10), 15-tetraen-3,17β-diol]
[1]
  IC50: 490 ± 60 nM
  NCI-ADR/MDA-MB-435 resistance factor: 0.57
[3]
  IC50: 430 ± 80 nM
[4]
  IC50: 1820 ± 980 nM
[5]
  IC50: 1370 ± 260 nM
[6]
  potency relative to 2-ME2: over three times more potent
  IC50: 1250 ± 320 nM
[2]
  IC50: 860 ± 110 nM
[7]
  potency relative to 2-ME2, HUVEC proliferation: equipotent with the parental compound
  IC50: 720 ± 20 nM
[8]
  potency relative to 2-ME2 in inhibiting HUVEC invasion: equipotent with 2-ME2
  IC50: 2070 ± 80 nM
[9]
  tumor growth delay: 7.5 days
  antitumor effect compared with 2-ME2: superior to 2-ME2
[9]; one-sided Student's t-test, P<0.05
  days with statistically significant differences between control and treated tumors: days 16-26 and day 36
[10]
  potency compared with 2-ME2, tumor cell lines: approximately equal in potency to 2-ME2

## COc1cc2c(cc1O)CC[C@H]1C3=CC[C@H](O)[C@@]3(C)CC[C@H]21 [14-dehydro-2-ME2, 2-Methoxyestra-1,3,5(10), 14-tetraen-3,17β-diol]
[1]
  IC50: 56 ± 10 nM
  NCI-ADR/MDA-MB-435 resistance factor: 1.0
[3]
  IC50: 50 ± 20 nM
[4]
  IC50: 350 ± 90 nM
[5]
  IC50: 150 ± 70 nM
[6]
  potency relative to 2-ME2: 2.7 fold
  IC50: 1580 ± 810 nM
[2]
  IC50: 56 ± 2 nM
[7]
  potency relative to 2-ME2, HUVEC proliferation: more potent than 2-ME2
  IC50: 49 nM
[8]
  potency relative to 2-ME2 in inhibiting HUVEC invasion: more than 6 times
  IC50: 300 ± 20 nM
[9]
  tumor growth delay: 10.0 days
  antitumor effect compared with 2-ME2: superior to 2-ME2
[10]; 5 of the 6 cell lines tested
  potency relative to 2-ME2: 6-24 fold

## CC(=O)O[C@H]1C(=O)[C@@]2(C)[C@H]([C@H](OC(=O)c3ccccc3)[C@]3(O)C[C@H](OC(=O)[C@H](O)[C@@H](NC(=O)c4ccccc4)c4ccccc4)C(C)=C1C3(C)C)[C@]1(OC(C)=O)CO[C@@H]1C[C@@H]2O [Taxol ®, reference compound]
[1]
  IC50: 4460 ± 610 nM
  NCI-ADR/MDA-MB-435 resistance factor: 2218.91
[2]
  IC50: 2.01 ± 0.3 nM

## COc1cc2c(cc1O)CCC1C2CC[C@@]2(C)C1CC[C@@H]2O (stereo partly shown) [2-ME2, 2-Methoxyestradiol, reference compound]
[1]
  IC50: 380 ± 10 nM
  NCI-ADR/MDA-MB-435 resistance factor: 0.28
[3]
  IC50: 450 ± 40 nM
[4]
  IC50: 2220 ± 150 nM
[5]
  IC50: 1790 ± 240 nM
[6]
  IC50: 4260 ± 950 nM
[2]
  IC50: 1380 ± 100 nM
[7]
  IC50: 700 ± 110 nM
[8]
  IC50: 1990 ± 390 nM

## COc1cc2c(cc1O)CC=C1[C@@H]2CC[C@]2(C)[C@@H](O)CC[C@@H]12 [7-dehydro-2-ME2, 2-Methoxyestra-1,3,5(10), 7-tetraen-3,17β-diol]
[1]
  IC50: 2540 ± 440 nM
  NCI-ADR/MDA-MB-435 resistance factor: 1.29
[5]
  IC50: 4490 ± 180 nM
[2]
  IC50: 1970 ± 400 nM
[2]; MDA-MB-435 cell line, in words
  potency compared with 2-ME2: almost equipotent
[7]
  potency relative to 2-ME2, HUVEC proliferation: less potent
  IC50: 4390 ± 370 nM
[10]
  potency compared with 2-ME2, tumor cell lines: generally less potent than 2-ME2
